How the values were obtained:
[1] = test system: naive CD4+ T cells; assay: IL-10 in naive CD4+ T cells cultured with GSK-3 inhibitors (ICCS, bead immunoassay); format: cell-based, mouse; conditions: for IL-10 production: naive CD4+CD62L+ T-cells from Tg4 spleens, cultured in the presence of GSK3 inhibitors; for Intracellular IL-10 levels: naive Tg4 CD4+ cells, anti CD3/anti CD28 Dynabeads, 2 μM CHIR99021 or 3 μM SB216763, ICCS day 7
Description: A. CD4^+/CD62L^+ T cells were isolated from Tg4 splenocytes and cultured with anti-CD3/anti-CD28 coated beads in the presence of IL-2 and DMSO (1:1000; Control), CHIR99021 (2 μM), SB216763 (5 μM) or SB627772 (10 μM). Intracellular cytokine staining for […] and IL-10 was carried out on day 7 of restimulation after PMA and lonomycin stimulation. Data are plots gated on live CD4^+ cells and are representative of 3 independent experiments.
B. Tissue culture supernatants were taken on day 3 of restimulation and analysed for IL-10 by fluorescent bead immunoassay. Data are mean+/−SEM of 3 independent experiments.
CD4+ cells purified from a naive Tg4 spleen were cultured in the presence of 2 μM CHIR99021, 3 μM SB216763 or 0.02% DMSO (vehicle control) with anti CD3/anti CD28 Dynabeads. Cells were analysed by ICCS on Day 7 after stimulation.
(§1) In a separate experiment, CD4+ cells from Tg4 mice which express TCR specific for the peptide Ac[1-9] of MBP were polarised to a Th1 phenotype and then cultured in the presence of GSK3 inhibitors. Three structurally distinct inhibitors, CHIR99021, SB216763 and SB627772 were used to minimise effects of off-target inhibition.

[2] = test system: Th1 cells; assay: IL-10 protein in Th1-polarised CD4+ cells restimulated with GSK-3 inhibitors (ICCS, bead immunoassay); format: cell-based, mouse; conditions: for IL-10 protein: Th1 CD4+ cells restimulated with APCs and peptide or with anti-CD3/anti-CD28 coated beads; for Intracellular IL-10 levels: Th1 cells restimulated with anti CD3/anti CD28 Dynabeads, 2 μM CHIR99021 or 3 μM SB216763, ICCS day 7
Description: A. Splenocytes from a naive Tg4 mouse were cultured in the presence of peptide MBP Ac1-9 (10 μg/ml) and IL-12 with IL-2 added on day 3 of culture to polarise CD4+ cells towards a Th1 phenotype. On day 7 of culture, Th1 cells were restimulated with fresh irradiated APCs from a B10_PL mouse in the presence of DMSO (1:1000; Control), CHIR99021 (2 μM), SB216763 (5 μM) or SB627772 (10 μM) as well as peptide MBP Ac1-9 (10 μg/ml). IL-2 was added on day 3 of culture and intracellular cytokine staining for IFNγ and IL-10 carried out on day 7 of restimulation after PMA and lonomycin stimulation. Data are plots gated on live CD4^+ cells and are representative of 5 independent experiments.
C. Splenocytes from a naive Tg4 mouse were cultured in the presence of peptide MBP Ac1-9 (10 μg/ml) and IL-12 with IL-2 added on day 3 of culture to polarise CD4+ cells towards a Th1 phenotype. On day 7 of culture, Th1 CD4+ cells were isolated and restimulated with anti-CD3/anti-CD28 coated beads in the presence of IL-2 and DMSO (1:1000; Control), CHIR99021 (2 μM), SB216763 (5 μM) or SB627772 (10 μM). Intracellular cytokine staining for IFNγ and IL-10 was carried out on day 7 of restimulation after PMA and lonomycin stimulation. Data are plots gated on live CD4^+ cells and are representative of 4 independent experiments.
E. Tissue culture supernatants were taken on day 3 of restimulation and analysed for IL-10 by fluorescent bead immunoassay. Data are mean+/−SEM and are representative of 3 independent experiments.
Splenocytes from a naive Tg4 mouse were cultured in the presence of peptide MBP Ac1-9 (10 μg/ml) and IL12 with IL2 added on day 3 to polarise cells to a Th1 phenotype. On day 7, cells were restimulated with anti CD3/anti CD28 Dynabeads and 2 μM CHIR99021, 3 μM SB216763 or 0.02% DMSO (vehicle control). Cells were analysed by ICCS on Day 7 after stimulation. Intracellular IL-10 levels were increased following treatment with either GSK-3 inhibitor (CHIR99021 or SB216763).
as §1

[3] = test system: Th1 cells; assay: IL-10 mRNA by qPCR in Th1 CD4+ cells; format: cell-based, mouse; conditions: IL-10 relative to HPRT1
Description: F. Splenocytes from a naive Tg4 mouse were cultured in the presence of peptide MBP Ac1-9 (10 μg/ml) and IL-12 with IL-2 added on day 3 of culture to polarise CD4+ cells towards a Th1 phenotype. On day 7 of culture, Th1 cells were restimulated with fresh irradiated APCs from a B10_PL mouse in the presence of DMSO (1:1000; Control), CHIR99021 (2 μM), SB216763 (5 μM) or SB627772 (10 µM) as well as peptide MBP Ac1-9 (10 μg/ml). IL-2 was added on day 3 of culture. On day 7 of restimulation live CD4^+ cells were selected and stimulated with anti CD3/CD28 antibodies for 16 hrs. RNA was extracted and IL-10 mRNA quantified by qPCR. IL-10 quantities are shown relative to HPRT1 control.
as §1

[4] = test system: β-catenin; assay: beta-catenin Western blot in Th1 CD4+ cells; format: cell-based, mouse; conditions: for β-catenin accumulation (Western blot): CD4+ cells, 2 μM CHIR99021, 5 μM SB216763, 10 μM SB627772; for β-catenin levels (Western blot): Th1 cells restimulated with APCs and peptide, indicated concentrations, day 7
Description: G. Splenocytes from a naive Tg4 mouse were cultured in the presence of peptide MBP Ac1-9 (10 μg/ml) and IL-12 with IL-2 added on day 3 to polarise cells to a Th1 phenotype. On day 7 cells were restimulated with fresh irradiated APCs from a B10_PL mouse, peptide Ac1-9 of MBP (10 μg/ml) and the indicated concentrations of CHIR99021, SB216763 or SB627772. On day 7 of restimulation, CD4^+ cells were lysed in RIPA buffer, subjected to Western blotting and probed with beta catenin antibody. The membrane was stripped and reprobed for GAPDH as a loading control.
Splenocytes from a naive Tg4 mouse were cultured in the presence of peptide MBP Ac1-9 (10 μg/ml) and IL12 with IL2 added on day 3 to polarise cells to a Th1 phenotype. On day 7 cells were restimulated with fresh irradiated APCs, peptide Ac1-9 of MBP (10 μg/ml) and the indicated concentrations of SB216763 or CHIR99021. On day 7 of restimulation, cells were lysed in RIPA buffer, subjected to Western blotting and probed with beta catenin antibody. The membrane was stripped and reprobed for GAPDH as a loading control. GSK-3 consititutively phosphorylates the β-catenin protein, leading to its degradation.

[5] = test system: β-catenin; conditions: cited from earlier work
[6] = test system: APC / Th1 CD4+ cells; assay: IL-10 with APCs from WT or IL-10 knockout mice (ICCS, ELISA); format: cell-based, mouse; conditions: 2 μM CHIR99021, APCs from WT or IL10 knockout mice, ICCS and day 3 ELISA
Description: A. Splenocytes from a naive Tg4 mouse were cultured in the presence of peptide MBP Ac1-9 (10 μg/ml) and IL-12 with IL-2 added on day 3 of culture to polarise CD4+ cells towards a Th1 phenotype. On day 7 of culture, Th1 cells were restimulated with fresh irradiated APCs from either a B10_PL or B10_PL IL10^−/− mouse in the presence of DMSO (1:1000; Control) or CHIR99021 (2 μM). IL-2 was added on day 3 of culture and intracellular cytokine staining for […] and IL-10 carried out on day 7 of restimulation after PMA and lonomycin stimulation. Data are plots gated on live CD4^+ cells and are representative of 3 independent experiments. B. Tissue culture supernatants were taken on day 3 of restimulation and analysed for IL-10 by ELISA. Data are mean+/−SEM and are representative of 3 independent experiments. Splenocytes from a naive Tg4 mouse were cultured in the presence of either: (a) peptide MBP Ac1-9 (10 μg/ml) and IL12 with IL2 added on day 3 to polarise cells to a Th1 phenotype; or (b) IL4 and anti IFNγ with IL2 added on day 3 to polarise cells to a Th2 phenotype. On day 7 CD4+ cells were restimulated with fresh irradiated APCs from either WT or IL10 knockout mice, 2 μM CHIR99021 or 0.02% DMSO (vehicle control) and peptide […] of MBP (10 μg/ml). Supernatants were taken in triplicate on day 3 and analysed for IL-10 by ELISA (FIG. 3 (E)). […]

Cn1cc(C2=C(c3ccc(Cl)cc3Cl)C(=O)NC2=O)c2ccccc21 [SB216763]
IL-10 production [1]: did not show any change
Intracellular IL-10 levels [1]: not significantly affected
IL-10 protein [2]: significantly increased
Intracellular IL-10 levels [2]: increased
IL-10 mRNA (qPCR) [3]: upregulation
β-catenin accumulation (Western blot) [4]: no accumulation of β-catenin
β-catenin levels (Western blot) [4]: does not appear to cause a significant effect on β-catenin levels

O=C1NC(=O)C(c2ccccc2[N+](=O)[O-])=C1Nc1ccc(O)c(Cl)c1 [SB415286]
Level of β-catenin [5]: elevate the level of 13-catenin

Cc1c[nH]c(-c2cnc(NCCNc3ccc(C#N)cn3)nc2-c2ccc(Cl)cc2Cl)n1 [CHIR99021]
IL-10 production [1]: did not show any change
Intracellular IL-10 levels [1]: not significantly affected
IL-10 protein [2]: significantly increased
Intracellular IL-10 levels [2]: increased
IL-10 mRNA (qPCR) [3]: upregulation
IL-10 in / produced by the APC [6]: Neither the intracellular level of IL-10 in the APC nor the production of IL-10 by the APC was enhanced
β-catenin accumulation (Western blot) [4]: no accumulation of β-catenin
β-catenin levels (Western blot) [4]: degradation of β-catenin appears to be inhibited, leading to build up of the β-catenin protein
